Test results: US8247211B2, “Glycopeptide antibiotics” (American Cyanamid Company, priority 2001, dated 2012)
Converted amounts (≈) assume the structure as drawn.

Experiments:
Experiment in all cases: In vitro antibacterial evaluation: minimum inhibitory concentration (MIC), broth dilution method
Format in all cases: cell-based
Enterococcus sp. = test system: Enterococcus sp.
Procedure: (§1) The minimum inhibitory concentration (MIC), the lowest concentration of the antibiotic which inhibits growth of the test organism, is determined by the broth dilution method using Muller-Hinton II […] (Baltimore Biological Laboratories) following the recommendations of the National Committee for Clinical Laboratory Standards [Methods for dilution antimicrobial susceptibility tests for bacteria that grow aerobically, approved standard M7-A2, National Committee for Clinical Laboratory Standards, Villanova, Pa].
(§2) An inoculum level of 5×10^5 CFU/mL, and a range of antibiotic concentrations (64-0.06 μg/mL) is used. […] The test organisms include a spectrum of Gram-positive bacteria comprised of Staphylococcus sp., Streptococcus sp. and Enterococcus sp. These organisms include recent clinical isolates that are resistant to methicillin, penicillin and/or vancomycin.

Staphylococcus sp. = conditions: broth dilution, 18 hours at 35° C.
Procedure: as §1, §2

Streptococcus sp. = test system: Streptococcus sp.
Procedure: as §1, §2

Escherichia coli = test system: Escherichia coli
Procedure: as §1, §2

- MIC Enterococcus faecalis (ATCC 29212) (Enterococcus sp.; strain ATCC 29212): >64 µg/mL
- MIC Enterococcus faecalis (GC 2242) (Enterococcus sp.; strain GC 2242): >64 µg/mL
- MIC Enterococcus faecium (GC 2243) (Enterococcus sp.; strain GC 2243): >64 µg/mL
- MIC Enterococcus faecalis (GC 2691) (Enterococcus sp.; strain GC 2691): >64 µg/mL
- MIC Enterococcus faecalis (GC 3059) (Enterococcus sp.; strain GC 3059): >64 µg/mL
- MIC Enterococcus faecalis (GC 4552) (Enterococcus sp.; strain GC 4552): >64 µg/mL
- MIC Enterococcus faecalis (GC 4553) (Enterococcus sp.; strain GC 4553): >64 µg/mL
- MIC Enterococcus faecalis (GC 4554) (Enterococcus sp.; strain GC 4554): >64 µg/mL
- MIC Enterococcus faecium (GC 4556) (Enterococcus sp.; strain GC 4556): >64 µg/mL
- MIC Enterococcus faecium (GC 4557) (Enterococcus sp.; strain GC 4557): 16 µg/mL (≈ 11.1 µM)
- MIC Enterococcus avium (GC 4558) (Enterococcus sp.; strain GC 4558): 64 µg/mL (≈ 44.3 µM)
- MIC Enterococcus faecalis (GC 6189) (Enterococcus sp.; strain GC 6189): >64 µg/mL
- MIC Coagulase Negative Staphylococcus (GC 4547) (Staphylococcus sp.; 5×10^5 CFU/mL): 16 µg/mL (≈ 11.1 µM)
- MIC Coagulase Negative Staphylococcus (GC 4548) (Staphylococcus sp.; 5×10^5 CFU/mL): 8 µg/mL (≈ 5.54 µM)
- MIC Coagulase Negative Staphylococcus (GC 4549) (Staphylococcus sp.; 5×10^5 CFU/mL): 8 µg/mL (≈ 5.54 µM)
- MIC Coagulase Negative Staphylococcus (GC 4551) (Staphylococcus sp.; 5×10^5 CFU/mL): 32 µg/mL (≈ 22.2 µM)
- MIC Coagulase Negative Staphylococcus (GC 6257) (Staphylococcus sp.; 5×10^5 CFU/mL): 8 µg/mL (≈ 5.54 µM)
- MIC Staphylococcus aureus (ATCC 29213) (Staphylococcus sp.; 5×10^5 CFU/mL): 32 µg/mL (≈ 22.2 µM)
- MIC Staphylococcus aureus (GC 1131) (Staphylococcus sp.; 5×10^5 CFU/mL): 32 µg/mL (≈ 22.2 µM)
- MIC Staphylococcus aureus (GC 3051) (Staphylococcus sp.; 5×10^5 CFU/mL): 32 µg/mL (≈ 22.2 µM)
- MIC Staphylococcus aureus (GC 3053) (Staphylococcus sp.; 5×10^5 CFU/mL): 32 µg/mL (≈ 22.2 µM)
- MIC Staphylococcus aureus (GC 4541) (Staphylococcus sp.; 5×10^5 CFU/mL): 16 µg/mL (≈ 11.1 µM)
- MIC Staphylococcus aureus (GC 4542) (Staphylococcus sp.; 5×10^5 CFU/mL): 32 µg/mL (≈ 22.2 µM)
- MIC Staphylococcus aureus (GC 4544) (Staphylococcus sp.; 5×10^5 CFU/mL): 32 µg/mL (≈ 22.2 µM)
- MIC Staphylococcus aureus (GC 4545) (Staphylococcus sp.; 5×10^5 CFU/mL): 16 µg/mL (≈ 11.1 µM)
- MIC Staphylococcus aureus-SMITH (GC 4543) (Staphylococcus sp.; 5×10^5 CFU/mL): 16 µg/mL (≈ 11.1 µM)
- MIC Staphylococcus aureus (ATCC 29213) (Staphylococcus sp.; strain ATCC 29213): 32 µg/mL (≈ 22.2 µM)
- MIC Staphylococcus aureus (GC 1131) (Staphylococcus sp.; strain GC 1131): 32 µg/mL (≈ 22.2 µM)
- MIC Staphylococcus aureus (GC 3051) (Staphylococcus sp.; strain GC 3051): 32 µg/mL (≈ 22.2 µM)
- MIC Staphylococcus aureus (GC 3053) (Staphylococcus sp.; strain GC 3053): 32 µg/mL (≈ 22.2 µM)
- MIC Staphylococcus aureus (GC 4541) (Staphylococcus sp.; strain GC 4541): 16 µg/mL (≈ 11.1 µM)
- MIC Staphylococcus aureus (GC 4542) (Staphylococcus sp.; strain GC 4542): 32 µg/mL (≈ 22.2 µM)
- MIC Staphylococcus aureus-SMITH (GC 4543) (Staphylococcus sp.; strain GC 4543): 16 µg/mL (≈ 11.1 µM)
- MIC Staphylococcus aureus (GC 4544) (Staphylococcus sp.; strain GC 4544): 32 µg/mL (≈ 22.2 µM)
- MIC Staphylococcus aureus (GC 4545) (Staphylococcus sp.; strain GC 4545): 16 µg/mL (≈ 11.1 µM)
- MIC Coagulase Negative Staphylococcus (GC 4547) (Staphylococcus sp.; strain GC 4547): 16 µg/mL (≈ 11.1 µM)
- MIC Coagulase Negative Staphylococcus (GC 4548) (Staphylococcus sp.; strain GC 4548): 8 µg/mL (≈ 5.54 µM)
- MIC Coagulase Negative Staphylococcus (GC 4549) (Staphylococcus sp.; strain GC 4549): 8 µg/mL (≈ 5.54 µM)
- MIC Coagulase Negative Staphylococcus (GC 4551) (Staphylococcus sp.; strain GC 4551): 32 µg/mL (≈ 22.2 µM)
- MIC Coagulase Negative Staphylococcus (GC 6257) (Staphylococcus sp.; strain GC 6257): 8 µg/mL (≈ 5.54 µM)
- MIC Streptococcus pneumoniae (ATCC 6301) (Streptococcus sp.; strain ATCC 6301): 8 µg/mL (≈ 5.54 µM)
- MIC Streptococcus pneumoniae (GC 1894) (Streptococcus sp.; strain GC 1894): 8 µg/mL (≈ 5.54 µM)
- MIC Streptococcus pyogenes (GC 4563) (Streptococcus sp.; strain GC 4563): 16 µg/mL (≈ 11.1 µM)
- MIC Streptococcus agalactiae (GC 4564) (Streptococcus sp.; strain GC 4564): 32 µg/mL (≈ 22.2 µM)
- MIC Streptococcus pneumoniae (GC 4565) (Streptococcus sp.; strain GC 4565): 16 µg/mL (≈ 11.1 µM)
- MIC Escherichia coli (ATCC 25922) (Escherichia coli; strain ATCC 25922): >64 µg/mL
- MIC Escherichia coli (GC 4559) (Escherichia coli; strain GC 4559): >64 µg/mL
- MIC Escherichi coli (GC 4560) (Escherichia coli; strain GC 4560): 16 µg/mL (≈ 11.1 µM)
Structure (SMILES): COc1cc(OC)cc(C2OC3C(OC4C(CO)OC(Oc5ccc(CC6NC(=O)C(C(C)c7ccccc7)NC(=O)CNC(=O)C(CO)NC(=O)C(C(O)C7CNC(=N)N7C7OC(CO)C(O)C(O)C7O)NC(=O)C(C(O)C7CNC(=N)N7)NC6=O)cc5)C(O)C4O)OC(CO)C(O)C3O2)c1 (stereo not drawn) [Example 150a, Cyclo[glycyl-β-methylphenylalanyl-O-[4-O-[2,3-O-(3,5-dimethoxybenzylidene)hexopyranosyl]-hexopyranosyl]tyrosyl-3-(2-iminoimidazolidin-4-yl)seryl-3-(3-hexopyranosyl-2-iminoimidazolidin-4-yl)serylseryl]]
- MIC Staphylococcus haemolyticus (GC 4546) (Staphylococcus sp.; 5×10^5 CFU/mL): 16 µg/mL (≈ 11.1 µM)
- MIC Staphylococcus haemolyticus (GC 4546) (Staphylococcus sp.; strain GC 4546): 16 µg/mL (≈ 11.1 µM)
